What was measured:
[1] = 25° C., cited from earlier work; for Solubility of Parabens, Ethanol: solvent ethanol; for Solubility of Parabens, Propylene glycol: solvent propylene glycol; for Solubility of Parabens, Water: solvent water
[2] = system: Pseudomonas aeruginosa (ATCC 9027); assay: Anti-bacterial Minimum Inhibitory Concentration (MIC) Method, microbroth dilution; format: cell-based; settings: Table 4; CAMHB, 37° C., 24 hours, pH 4.5-adjusted stock
Protocol: (§1) Anti-Bacterial and Anti-Fungal Minimum Inhibitory Concentration (MIC) Method Method: Microbroth Dilution Method (96-well format). Test item: […] Solvent: Sterile MilliQ water and 0.1 M Citrate Buffer pH 4.5 Media used: • Bacterial: Cation-Adjusted Mueller-Hinton Broth (CAMHB) • Fungi: RPMI-1640 […] Fungi: • Incubation Temperature: • 25° C. (Candida albicans) • 35° C. (Aspergillus brasiliensis) • Incubation Time: 48 hours • Inoculum Size: 5×10^4 cfu/mL • Strains: • Candida albicans (ATCC 10231) • Aspergillus brasiliensis (ATCC 16404) • End point: Inhibition of growth, Spectrophotometer Reading @ 600 nm • Reference standards: […] All solubilized and pH 4.5-adjusted test compounds were filter-sterilized before subjecting to MIC study. […] All the strains were inoculated on their respective agar medium and incubated under conditions/durations detailed above. • Preparation of inoculum: • The bacterial colony suspension in 0.85% saline was adjusted to 1 McFarland's standard using […] which was further diluted to 1:100 in CAMHB. The fungal suspension for inoculation was prepared in 0.85% saline from 6 days old culture (for mold, A. brasiliensis) and from 2 days old culture (for yeast, C. albicans) from Sabouraud Dextrose agar medium. […] Micro titer plates were prepared as per the CLSI recommendations. One hundred and seventy five microliters of Cation-adjusted Muller Hinton Broth (CAMHB) was added to the first column of a 96 well flat bottom plate, which is the media control. Second column is for the stocks of the test compounds and reference standards from which dilutions are made. Then 175 μL of CAMHB was added to the 5th, 8th and 11th columns, 75 μL of CAMHB to the 4th, 7th and 10th columns and 50 μL of CAMHB to the 3rd, 6th and 9th columns and the last column was the organism control.

[3] = system: Burkholderia cepacia (ATCC 25416); assay: as above; format: cell-based; settings: Table 4; CAMHB, 37° C., 24 hours, pH 4.5-adjusted stock
Protocol: as §1

[4] = system: Staphylococcus aureus (ATCC 6538); assay: as above; format: cell-based; settings: Table 4; CAMHB, 37° C., 24 hours, pH 4.5-adjusted stock
Protocol: as §1

[5] = system: Escherichia coli (ATCC 8739); assay: as above; format: cell-based; settings: Table 4; CAMHB, 37° C., 24 hours, pH 4.5-adjusted stock
Protocol: as §1

[6] = format: physicochemical; settings: pH 4.5
Protocol: This water was used as a test media for determining the solubility of test/reference items. Stock solutions of concentration 1 mg/mL for test items/reference items was prepared in methanol. The stock solution will be used for preparation of calibration curve standards. Calibration curve of test/reference items was prepared by serially dilution consisting of 4-5-6 concentrations in 96 well format. […] The method was as follows: Calibration curve of test items were prepared by serial dilution consisting of 8 concentrations. […] Water, 50:50). […] 40 mg of test items were weighed into tubes. […] The initial pH of the solubility samples were recorded. […] Then, the solutions were observed visually for any precipitation. […] An aliquot of the supernatant were diluted with equal volume of methanol. […] The samples were then transferred to UV plate and scanned at λmax of that particular test/reference item. Compound #12 was transferred to auto-sampler vials and submitted for LC-MS/MS analysis.

[7] = system: Aspergillus brasiliensis (ATCC 16404); assay: Anti-fungal Minimum Inhibitory Concentration (MIC) Method, microbroth dilution; format: cell-based; settings: Table 4; RPMI-1640, 35° C., 48 hours, pH 4.5-adjusted stock
Protocol: (§2) Anti-Bacterial and Anti-Fungal Minimum Inhibitory Concentration (MIC) Method Method: Microbroth Dilution Method (96-well format). Test item: […] Solvent: Sterile MilliQ water and 0.1 M Citrate Buffer pH 4.5 Media used: • Bacterial: Cation-Adjusted Mueller-Hinton Broth (CAMHB) • Fungi: RPMI-1640 Fungi: • Incubation Temperature: • 25° C. (Candida albicans) • 35° C. (Aspergillus brasiliensis) • Incubation Time: 48 hours • Inoculum Size: 5×10^4 cfu/mL • Strains: • Candida albicans (ATCC 10231) • Aspergillus brasiliensis (ATCC 16404) • End point: Inhibition of growth, Spectrophotometer Reading @ 600 nm • Reference standards: […] All solubilized and pH 4.5-adjusted test compounds were filter-sterilized before subjecting to MIC study. […] All the strains were inoculated on their respective agar medium and incubated under conditions/durations detailed above. • Preparation of inoculum: • The bacterial colony suspension in 0.85% saline was adjusted to 1 McFarland's standard using […] which was further diluted to 1:100 in CAMHB. The fungal suspension for inoculation was prepared in 0.85% saline from 6 days old culture (for mold, A. brasiliensis) and from 2 days old culture (for yeast, C. albicans) from Sabouraud Dextrose agar medium. […] Micro titer plates were prepared as per the CLSI recommendations. One hundred and seventy five microliters of Cation-adjusted Muller Hinton Broth (CAMHB) was added to the first column of a 96 well flat bottom plate, which is the media control. Second column is for the stocks of the test compounds and reference standards from which dilutions are made. Then 175 μL of CAMHB was added to the 5th, 8th and 11th columns, 75 μL of CAMHB to the 4th, 7th and 10th columns and 50 μL of CAMHB to the 3rd, 6th and 9th columns and the last column was the organism control.

[8] = system: Candida albicans (ATCC 10231); assay: as above; format: cell-based; settings: Table 4; RPMI-1640, 25° C., 48 hours, pH 4.5-adjusted stock
Protocol: as §2

[9] = Determination of Dissociation Constant (pKa) by Potentiometric Titration Method; format: physicochemical; settings: ultrapure water, pH 4.5, Table 3, 0.1 mg/ml, 22° C.
Protocol: Potentiometric Titration Method: A calibrated pH meter was used for the assay. 50 mL solution of each test/reference item solution (0.1 mg/mL) was added to four beakers (two for acid titration and two for base titration). 0.1 N Sodium hydroxide (NaOH) solution was prepared as titrant solution. The pH electrode was placed into the beaker containing test/reference item solution. The initial pH of the solution will be recorded. 100 μL of 0.1 N NaOH was added successively with stirring and the pH at each addition was recorded. Base titrations were carried out individually in duplicates until a sudden shift in the pH was observed.

Structure (SMILES): CCCCOC(=O)c1ccc(O)cc1 [Butylparaben]
- Solubility of Parabens, Ethanol [1]: 68 % w/w
- Solubility of Parabens, Propylene glycol [1]: 49 % w/w
- Solubility of Parabens, Water [1]: 0.02 % w/w

Structure (SMILES): CCC(O)COC(=O)c1ccccc1 (centres unmarked) [Compound 12, Benzoic acid 2-hydroxy-butyl ester]
- MIC (%) P. aeruginosa [2]: >0.1175%
- MIC (%) B. cepacia [3]: 0.1175%
- MIC (%) S. Aureus [4]: 0.1175%
- MIC (%) E. coli [5]: 0.0588%
- Solubility (wt %) [6]: 0.24 wt %
- MIC (%) A. brasiliensis [7]: 0.0588%
- MIC (%) C. albicans [8]: 0.1175%
- pKa [9]: > 7

Structure (SMILES): CCOC(=O)c1ccc(O)cc1 [Ethylparaben]
- Solubility of Parabens, Ethanol [1]: 41 % w/w
- Solubility of Parabens, Propylene glycol [1]: 20 % w/w
- Solubility of Parabens, Water [1]: 0.11 % w/w

Reference: patent US11252960B2 (KIMBERLY-CLARK WORLDWIDE, INC., priority 2017, dated 2022)
